≈ marks a conversion by molar mass, not a printed value. Read-outs that look alike come from different tables or passages of the source.
Experiments:
in vivo = details: read-out: values of acute toxicity
From the text: (1) Acute toxicity in mouse:
The compounds according to this invention dissolved in a physiological saline solution were intravenously dosed to five ICR male 6 weeks-old mouse.

Escher. coli NIHJ = experiment: Anti-bacterial activity (MIC), agar dilution; type: cell-based; details: Escherichia coli, 18 h
Summary of the method: (§1)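 Read-out is MIC (μg/ml) after 18 hours at 37° C on Mueller-Hinton agar with twofold antibiotic series. Inoculum: overnight broth cultures diluted to ~10^6 CFU/ml, spotted.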

[1] = system: Morganella morganii EP-14; experiment: Anti-bacterial activity (MIC), agar dilution; type: cell-based; details: Morganella morganii, EP14, 18 h, about 10^6 CFU/ml, 37° C., read-out: MIC
Summary of the method: as §1

Ser. marcescens ES-75 = experiment: Anti-bacterial activity (MIC), agar dilution; type: cell-based; details: Serratia marcescens, ES75, 18 h, Ser. marcescens ES-75; agar dilution, about 10^6 CFU/ml, 18 hours, 37° C.; read-out: MIC
Summary of the method: as §1

Staph. aureus 209-P = experiment: Anti-bacterial activity (MIC), agar dilution; type: cell-based; details: Staphylococcus aureus, 209P, 18 h, Staph. aureus 209-P; agar dilution, about 10^6 CFU/ml, 18 hours, 37° C.; read-out: MIC
Summary of the method: as §1

Kleb. pneumoniae EK-6 = experiment: Anti-bacterial activity (MIC), agar dilution; type: cell-based; details: Klebsiella pneumoniae, EK6, 18 h, Kleb. pneumoniae EK-6; agar dilution, about 10^6 CFU/ml, 18 hours, 37° C.; read-out: MIC
Summary of the method: as §1

Pseud. aeruginosa EP-01 = experiment: Anti-bacterial activity (MIC), agar dilution; type: cell-based; details: Pseudomonas aeruginosa, EP01, 18 h
Summary of the method: as §1

[2] = intravenous, physiological saline solution, five ICR male 6 weeks-old mouse
[3] = Escher. coli NIHJ, agar dilution, about 10^6 CFU/ml, 18 hours, 37° C., read-out: MIC
[4] = Pseud. aeruginosa EP-01, agar dilution, about 10^6 CFU/ml, 18 hours, 37° C., read-out: MIC

Row | MIC [1] | MIC (Ser. marcescens ES-75) | MIC (Staph. aureus 209-P) | MIC (Kleb. pneumoniae EK-6) | MIC (Escher. coli NIHJ; [3]) | MIC (Pseud. aeruginosa EP-01; [4]) | SMILES | LD50 (in vivo; [2]) | MIC (Escher. coli NIHJ) | MIC (Pseud. aeruginosa EP-01) | LD50 (in vivo; mouse, iv)
1 | ≤ 0.025 µg/mL | 0.05 µg/mL (≈ 0.0807 µM) | 0.2 µg/mL (≈ 0.323 µM) | ≤ 0.025 µg/mL | ≤ 0.025 µg/mL | 0.8 µg/mL (≈ 1.29 µM) | C[N+]1(C/C=C/C2=C(C(=O)[O-])N3C(=O)[C@@H](NC(=O)/C(=N\OCF)c4nsc(N)n4)[C@H]3SC2)CCN(S(N)(=O)=O)CC1 [Example 119, 7β-[2-(5-Amino-1,2,4-thiadiazol-3-yl)-(Z)-2-fluoromethoxyiminoacetamido]-3-[(E)-3-(1-methyl-4-sulfamoyl-1-piperazinio)-1-propen-1-yl]-3-cephem-4-carboxylate] | – | – | – | –
2 | ≤ 0.025 µg/mL | 0.05 µg/mL (≈ 0.0881 µM) | 0.2 µg/mL (≈ 0.352 µM) | ≤ 0.025 µg/mL | ≤ 0.025 µg/mL | 0.8 µg/mL (≈ 1.41 µM) | C[N+](C)(C/C=C/C1=C(C(=O)[O-])N2C(=O)[C@@H](NC(=O)/C(=N\OCF)c3nsc(N)n3)[C@H]2SC1)Cc1nnco1 [Example 120, 7β-[2-(5-Amino-1,2,4-thiadiazol-3-yl)-(Z)-2-fluoromethoxyiminoacetamido]-3-[(E)-3-[(1,3,4-oxadiazol-2-yl)methyldimethylammonio]-1-propen-1-yl]-3-cephem-4-carboxylate] | – | – | – | –
3 | 0.05 µg/mL | 0.2 µg/mL | 0.4 µg/mL | 0.05 µg/mL | 0.05 µg/mL | 1.56 µg/mL | C[N+]1(C/C=C/C2=C(C(=O)[O-])N3C(=O)[C@@H](NC(=O)/C(=N\OCF)c4nsc(N)n4)[C@H]3SC2)CCN(C=N)CC1.Cl [Example 123, 7β-[2-(5-Amino-1,2,4-thiadiazol-3-yl)-(Z)-2-fluoromethoxyiminoacetamido]-3-[(E)-3-(1-methyl-4-formimidoyl-1-piperazinio)-1-propen-1-yl]-3-cephem-4-carboxylate hydrochloride] | – | – | – | –
4 | 0.05 µg/mL (≈ 0.0925 µM) | 0.1 µg/mL (≈ 0.185 µM) | 0.2 µg/mL (≈ 0.37 µM) | ≤ 0.025 µg/mL | 0.05 µg/mL (≈ 0.0925 µM) | 0.8 µg/mL (≈ 1.48 µM) | C[N+]1(C/C=C/C2=C(C(=O)[O-])N3C(=O)[C@@H](NC(=O)/C(=N\OCF)c4nsc(N)n4)[C@H]3SC2)CCNCC1 [Example 124, 7β[2-(5-Amino-1,2,4-thiadiazol-3-yl)-(Z)-2-fluoromethoxyiminoacetamido]-3-[(E)-3-(1-methyl-1-piperazinio)-1-propen-1-yl]-3-cephem-4-carboxylate] | – | – | – | –
5 | ≤ 0.025 µg/mL | 0.05 µg/mL (≈ 0.0905 µM) | 0.2 µg/mL (≈ 0.362 µM) | ≤ 0.025 µg/mL | ≤ 0.025 µg/mL | 0.8 µg/mL (≈ 1.45 µM) | Nc1nc(/C(=N/OCF)C(=O)N[C@@H]2C(=O)N3C(C(=O)[O-])=C(/C=C/C[N+]45CCN(CC4)CC5)CS[C@H]23)ns1 [Example 129, 7β-[2-(5-Amino-1,2,4-thiadiazol-3-yl)-(Z)-2-fluoromethoxyiminoacetamido]-3-[(E)-3-(1,4-diazabicyclo[2,2,2]octan-1-io)-1-propen-1-yl]-3-cephem-4-carboxylate] | – | – | – | –
6 | – | – | – | – | – | – | CC(=O)C[N+](C)(C)C/C=C/C1=C(C(=O)[O-])N2C(=O)[C@@H](NC(=O)/C(=N\OCF)c3nsc(N)n3)[C@H]2SC1 [Example 137, 7β-[2-(5-Amino-1,2,4-thiadiazol-3-yl)-(Z)-2-fluoromethoxyiminoacetamido]-3-[(E)-3-[(2-oxopropyl)dimethylammonio]-1-propen-1-yl]-3-cephem-4-carboxylate] | > 2000 mg/kg | – | – | –
7 | ≤ 0.025 µg/mL | 0.1 µg/mL (≈ 0.17 µM) | 0.2 µg/mL (≈ 0.339 µM) | ≤ 0.025 µg/mL | 0.05 µg/mL (≈ 0.0848 µM) | 0.8 µg/mL (≈ 1.36 µM) | Nc1nc(/C(=N/OCF)C(=O)N[C@@H]2C(=O)N3C(C(=O)[O-])=C(/C=C/C[N+](CCO)(CCO)CCO)CS[C@H]23)ns1 [Example 143, 7β-[2-(5-Amino-1,2,4-thiadiazol-3-yl)-(Z)-2 fluoromethoxyiminoacetamido]-3-[(E)-3-[tris(2-hydroxyethyl)ammonio]-1-propen-1-yl]-3-cephem-4-carboxylate] | – | – | – | –
8 | ≤ 0.025 µg/mL | 0.1 µg/mL (≈ 0.179 µM) | 0.2 µg/mL (≈ 0.357 µM) | 0.05 µg/mL (≈ 0.0893 µM) | ≤ 0.025 µg/mL | 0.8 µg/mL (≈ 1.43 µM) | C[N+](C/C=C/C1=C(C(=O)[O-])N2C(=O)[C@@H](NC(=O)/C(=N\OCF)c3nsc(N)n3)[C@H]2SC1)(CCO)CCO [Example 144, 7β-[2-(5-Amino-1,2,4-thiadiazol-3-yl)-(Z)-2-fluoromethoxyiminoacetamido]-3-[(E)-3-[bis(2-hydroxyethyl)methylammonio]-1-propen-1-yl]-3-cephem-4-carboxylate] | – | – | – | –
9 | 0.05 µg/mL (≈ 0.0838 µM) | 0.2 µg/mL (≈ 0.335 µM) | 0.2 µg/mL (≈ 0.335 µM) | 0.05 µg/mL (≈ 0.0838 µM) | 0.4 µg/mL (≈ 0.67 µM) | 1.56 µg/mL (≈ 2.61 µM) | N#CCO/N=C(\C(=O)N[C@@H]1C(=O)N2C(C(=O)[O-])=C(/C=C/C[N+](CCO)(CCO)CCO)CS[C@H]12)c1nsc(N)n1 [Example 147] | – | – | – | –
10 | 0.05 µg/mL (≈ 0.0908 µM) | 0.05 µg/mL (≈ 0.0908 µM) | 0.2 µg/mL (≈ 0.363 µM) | 0.05 µg/mL (≈ 0.0908 µM) | 0.1 µg/mL (≈ 0.182 µM) | 1.56 µg/mL (≈ 2.83 µM) | CC(O)C[N+](C)(C)C/C=C/C1=C(C(=O)[O-])N2C(=O)[C@@H](NC(=O)/C(=N\OCC#N)c3nsc(N)n3)[C@H]2SC1 (stereo partly drawn) [Example 149] | – | – | – | –
11 | 0.1 µg/mL (≈ 0.168 µM) | 0.1 µg/mL (≈ 0.168 µM) | 0.4 µg/mL (≈ 0.674 µM) | 0.1 µg/mL (≈ 0.168 µM) | 0.2 µg/mL (≈ 0.337 µM) | 1.56 µg/mL (≈ 2.63 µM) | C[C@@H](O)[C@@H](C(N)=O)[N+](C)(C)C/C=C/C1=C(C(=O)[O-])N2C(=O)[C@@H](NC(=O)/C(=N\OCC#N)c3nsc(N)n3)[C@H]2SC1 [Example 153] | – | – | – | –
12 | 0.1 µg/mL (≈ 0.16 µM) | 0.1 µg/mL (≈ 0.16 µM) | 0.4 µg/mL (≈ 0.638 µM) | 0.1 µg/mL (≈ 0.16 µM) | 0.1 µg/mL (≈ 0.16 µM) | 0.8 µg/mL (≈ 1.28 µM) | C[N+]1(C/C=C/C2=C(C(=O)[O-])N3C(=O)[C@@H](NC(=O)/C(=N\OCC#N)c4nsc(N)n4)[C@H]3SC2)CCN(S(N)(=O)=O)CC1 [Example 156] | – | – | – | –
13 | 0.1 µg/mL (≈ 0.179 µM) | 0.2 µg/mL (≈ 0.357 µM) | 0.4 µg/mL (≈ 0.715 µM) | 0.1 µg/mL (≈ 0.179 µM) | 0.1 µg/mL (≈ 0.179 µM) | 1.56 µg/mL (≈ 2.79 µM) | N#CCO/N=C(\C(=O)N[C@@H]1C(=O)N2C(C(=O)[O-])=C(/C=C/C[N+]34CCN(CC3)CC4)CS[C@H]12)c1nsc(N)n1 [Example 157, 7β-[2-(5-Amino-1,2,4-thiadiazol-3-yl)-(Z)-2-cyanomethoxyiminoacetoamido]-3-[(E)-3-(1,4-diazabicyclo[2,2,2]octane-1-io)-1-propen-1-yl]-3-cephem-4-carboxylate] | – | – | – | –
14 | 0.1 µg/mL (≈ 0.176 µM) | 0.1 µg/mL (≈ 0.176 µM) | 0.2 µg/mL (≈ 0.351 µM) | ≤ 0.025 µg/mL | ≤ 0.025 µg/mL | 1.56 µg/mL (≈ 2.74 µM) | N#CCO/N=C(\C(=O)N[C@@H]1C(=O)N2C(C(=O)[O-])=C(/C=C/C[n+]3ccc(C(N)=O)cc3)CS[C@H]12)c1nsc(N)n1 [Example 158, 7β-[2-(5-Amino-1,2,4-thiadiazol-3-yl)-(Z)-2-cyanomethoxyiminoacetoamido]-3-[(E)-3-(4-carbamoylpyridinio)-1-propen-1-yl]-3-cephem-4-carboxylate] | – | – | – | –
15 | 0.1 µg/mL (≈ 0.174 µM) | 0.1 µg/mL (≈ 0.174 µM) | 0.4 µg/mL (≈ 0.696 µM) | 0.05 µg/mL (≈ 0.087 µM) | 0.05 µg/mL (≈ 0.087 µM) | 1.56 µg/mL (≈ 2.71 µM) | C[N+](C)(C/C=C/C1=C(C(=O)[O-])N2C(=O)[C@@H](NC(=O)/C(=N\OCC#N)c3nsc(N)n3)[C@H]2SC1)Cc1nnco1 [Example 159] | – | – | – | –
16 | 0.1 µg/mL (≈ 0.179 µM) | 0.2 µg/mL (≈ 0.357 µM) | 0.2 µg/mL (≈ 0.357 µM) | 0.05 µg/mL (≈ 0.0893 µM) | 0.05 µg/mL (≈ 0.0893 µM) | 1.56 µg/mL (≈ 2.79 µM) | N#CCO/N=C(\C(=O)N[C@@H]1C(=O)N2C(C(=O)[O-])=C(/C=C/C[N+]34CCCN3CCC4)CS[C@H]12)c1nsc(N)n1 [Example 161, 7β-[2-(5-Amino-1,2,4-thiadiazol-3-yl)-(Z)-2-cyanomethoxyiminoacetoamido]-3-[(E)-3-(1,5-diazabicyclo[3.3.0]octane-1-io)-1-propen-1-yl]-3-cephem-4-carboxylate] | – | – | – | –

Row | SMILES | MIC [1] | MIC (Ser. marcescens ES-75) | MIC (Staph. aureus 209-P) | MIC (Kleb. pneumoniae EK-6) | MIC (Escher. coli NIHJ; [3]) | MIC (Pseud. aeruginosa EP-01; [4]) | LD50 (in vivo; [2]) | MIC (Escher. coli NIHJ) | MIC (Pseud. aeruginosa EP-01) | LD50 (in vivo; mouse, iv)
17 | NC(=O)C1CC[N+](C/C=C/C2=C(C(=O)[O-])N3C(=O)[C@@H](NC(=O)/C(=N\OCF)c4nsc(N)n4)[C@H]3SC2)(CCO)CC1 (single isomer, unassigned) [Example 2-1, 7β-[2-(5-Amino-1,2,4-thiadiazol-3-yl)-(Z)-2-fluoromethoxyiminoacetamido]-3-[(E)-3-[1-(2-hydroxyethyl)-4-carbamoyl-1-piperidinio]-1-propen-1-yl]-3-cephem-4-carboxylate] | 0.05 µg/mL (≈ 0.0816 µM) | 0.05 µg/mL (≈ 0.0816 µM) | 0.4 µg/mL (≈ 0.653 µM) | 0.05 µg/mL (≈ 0.0816 µM) | – | – | > 2000 mg/kg | 0.05 µg/mL (≈ 0.0816 µM) | 1.56 µg/mL (≈ 2.55 µM) | –
18 | C[N+]1(C/C=C/C2=C(C(=O)[O-])N3C(=O)[C@@H](NC(=O)/C(=N\OCF)c4nsc(N)n4)[C@H]3SC2)C[C@H](O)C[C@@H]1CO (single isomer, unassigned) [Example 6-1, 7β-[2-(5-Amino-1,2,4-thiadiazol-3-yl)-(Z)-2-fluoromethoxyiminoacetamido]-3-[(E)-3-(4R-hydroxy-2R-hydroxymethyl-1-methyl-1-pyrrolidinio)-1-propen-1-yl]-3-cephem-4-carboxylate] | ≤ 0.025 µg/mL | ≤ 0.025 µg/mL | 0.2 µg/mL (≈ 0.35 µM) | ≤ 0.025 µg/mL | 0.05 µg/mL (≈ 0.0875 µM) | 0.8 µg/mL (≈ 1.4 µM) | – | – | – | > 2000 mg/kg
